# Article PMC11589570, “Critical assessment of LC3/GABARAP ligands used for degrader development and ligandability of LC3/GABARAP binding pockets” (Nature Communications, 2024)
# “And” between values parts separate entries of the source, which are not always exact repeats. Identical values can stand only once.
# Experiments:
# [1] = biological target: T1, NanoLuc-fusion full-length LC3A (Homo sapiens, UniProt Q9H492); assay: NanoBRET cellular target engagement assay in HEK293T cells; format: cell-based; conditions: NanoLuciferase-tagged LC3A, replicates
# T1 construct: a fluorescent donor (in this case full length LC3A and LC3B); expressed in transfected cells; host or cells: HEK293T (ATCC; CRL-11268)
# Description: (§1) NanoBRET cellular target engagement assay: Constructs contained the cDNA of full-length LC3A and LC3B cloned in frame with an N-terminal NanoLuc-fusion. Plasmids were transfected into HEK293T (ATCC; CRL-11268) cells using FuGENE HD (Promega, E2312) and proteins were allowed to express for 20 h. 10O5 and 8F20-based tracers were titrated to the protein as depicted in Supplementary Fig. 4d. For competition experiments, 1 µM of the tracers was pipetted into white 384-well plates (Greiner 781 207) using an Echo 550 acoustic dispenser (Labcyte) containing LC3A/LC3B expressing transfected cells at a density of 2.5 × 10^5 cells/mL in Opti-MEM without phenol red (Life Technologies). The system was allowed to equilibrate for 2 h at 37 °C and 5% CO2 prior to BRET measurements. To measure BRET, NanoBRET NanoGlo Substrate + Extracellular NanoLuc Inhibitor (Promega, N2540) was added as per the manufacturer’s protocol, and filtered luminescence was measured on a PHERAstar plate reader (BMG Labtech) equipped with a luminescence filter pair (450 nm BP filter (donor) and 610 nm LP filter (acceptor)). Competitive displacement data were then plotted using GraphPad Prism 9.3 software using a normalized 3-parameter curve fit. A detailed step-by-step protocol for this assay is described in Schwalm..
# [2] = biological target: T2, NanoLuc-fusion full-length LC3B (Homo sapiens, UniProt Q9GZQ8); assay: as above; format: cell-based; conditions: NanoLuciferase-tagged LC3B, replicates
# T2 construct: a fluorescent donor (in this case full length LC3A and LC3B); expressed in transfected cells; host or cells: HEK293T (ATCC; CRL-11268)
# Description: as §1
# LC3A = LC3A (Homo sapiens, UniProt Q9H492); assay: FP assay with 10O5- and 8F20-based dye-linked tracers 16 and 17; conditions: for Fluorescence polarization, protein titration LC3A with tween / Fluorescence polarization, protein titration LC3A without tween: replicates; for Fluorescence polarization, displacement experiment LC3A: competing compound not named, duplicates
# Description: The only experimental difference in our FP assay setup was the addition of 0.05% Tween-20, which is routinely used[27] to suppress unspecific binding of compounds to proteins.
# Fluorescence polarization assay utilizing tracers 16 and 17 for interaction studies with LC3A
# (upper panels) and LC3B (lower panels). The left panels depict protein titration measurements
# detergent in the buffer to suppress unspecific binding. Middle panels depict displacement
# Data were collected in technical
# triplicates with error bars expressing the SD (n=3).
# LC3B = LC3B (Homo sapiens, UniProt Q9GZQ8); assay: as above; conditions: for Fluorescence polarization, protein titration LC3B with tween / Fluorescence polarization, protein titration LC3B without tween: replicates; for Fluorescence polarization, displacement experiment LC3B: competing compound not named, duplicates
smiles,measurement,setting,value
O=C(CCC1=[N+]2C(=Cc3ccc(-c4ccc[nH]4)n3[B-]2(F)F)C=C1)NCCCOCCOCCOCCCNC(=O)COc1c(Br)cc(C=C2C(=O)Nc3ccc(I)cc32)cc1Br (mixture of isomers) [Tracer 16],"NanoBRET signal, tracer titration, LC3A",[1]; log tracer [M] -6.00109,124.819 and 118.345 and 124.774 and 114.881
same,"NanoBRET signal, tracer titration, LC3A",[1]; log tracer [M] -6.30155,112.067 and 104.028 and 114.067 and 103.426
same,"NanoBRET signal, tracer titration, LC3A",[1]; log tracer [M] -6.60241,103.182 and 101.845 and 103.925 and 98.4465
same,"NanoBRET signal, tracer titration, LC3A",[1]; log tracer [M] -6.90309,99.2084 and 97.2576 and 109.844 and 92.211
same,"NanoBRET signal, tracer titration, LC3A",[1]; log tracer [M] -7.30112,98.651 and 96.9847 and 99.2163 and 92.7664
same,"NanoBRET signal, tracer titration, LC3A",[1]; log tracer [M] -7.60206,97.6362 and 98.7001 and 95.2489 and 95.6855
same,"NanoBRET signal, tracer titration, LC3A",[1]; log tracer [M] -7.92154,98.1785 and 98.6876 and 96.8478 and 95.5754
same,"NanoBRET signal, tracer titration, LC3A",[1]; log tracer [M] -8.22214,94.3049 and 97.3658 and 91.0337 and 96.1748
same,"NanoBRET signal, tracer titration, LC3A",[1]; log tracer [M] -8.52302,97.3466 and 97.3205 and 85.6953 and 96.3749
same,"NanoBRET signal, tracer titration, LC3A",[1]; log tracer [M] -8.82391,89.2788 and 95.7646 and 83.5217 and 94.9158
same,"NanoBRET signal, tracer titration, LC3A",[1]; log tracer [M] -9.00004,83.6211 and 94.4654 and 83.1958 and 94.9397
same,"NanoBRET signal, tracer titration, LC3B",[2]; log tracer [M] -6.00109,120.842 and 122.882 and 129.602 and 128.339
same,"NanoBRET signal, tracer titration, LC3B",[2]; log tracer [M] -6.30155,120.38 and 105.763 and 124.568 and 118.005
same,"NanoBRET signal, tracer titration, LC3B",[2]; log tracer [M] -6.60241,113.602 and 104.043 and 104.401 and 107.212
same,"NanoBRET signal, tracer titration, LC3B",[2]; log tracer [M] -6.90309,98.6453 and 100.848 and 108.512 and 103.133
same,"NanoBRET signal, tracer titration, LC3B",[2]; log tracer [M] -7.30112,89.1385 and 91.7873 and 88.9398 and 88.605
same,"NanoBRET signal, tracer titration, LC3B",[2]; log tracer [M] -7.60206,87.7818 and 86.5962 and 85.9928 and 88.5055
same,"NanoBRET signal, tracer titration, LC3B",[2]; log tracer [M] -7.92154,85.4561 and 91.534 and 90.0484 and 87.589
same,"NanoBRET signal, tracer titration, LC3B",[2]; log tracer [M] -8.22214,87.644 and 91.0185 and 90.3527 and 95.3228
same,"NanoBRET signal, tracer titration, LC3B",[2]; log tracer [M] -8.52302,88.7452 and 86.3664 and 89.605 and 108.381
same,"NanoBRET signal, tracer titration, LC3B",[2]; log tracer [M] -8.82391,86.7783 and 81.6186 and 84.8664 and 94.2613
same,"NanoBRET signal, tracer titration, LC3B",[2]; log tracer [M] -9.00004,83.8822 and 80.9003 and 85.0772 and 83.4655
same,"Fluorescence polarization, protein titration LC3A with tween",LC3A; Protein 0.1 µM,17 and 27 and 22 and 26
same,"Fluorescence polarization, protein titration LC3A without tween",LC3A; Protein 0.1 µM,141 and 128 and 122 and 148
same,"Fluorescence polarization, protein titration LC3A with tween",LC3A; Protein 0.25 µM,23 and 27 (2×) and 19
same,"Fluorescence polarization, protein titration LC3A without tween",LC3A; Protein 0.25 µM,184 and 161 and 131 and 173
same,"Fluorescence polarization, protein titration LC3A with tween",LC3A; Protein 0.5 µM,22 and 18 and 24 and 23
same,"Fluorescence polarization, protein titration LC3A without tween",LC3A; Protein 0.5 µM,214 and 168 and 152 and 148
same,"Fluorescence polarization, protein titration LC3A with tween",LC3A; Protein 1 µM,36 and 25 and 24 and 27
same,"Fluorescence polarization, protein titration LC3A without tween",LC3A; Protein 1 µM,178 and 174 and 173 and 142
same,"Fluorescence polarization, protein titration LC3A with tween",LC3A; Protein 5 µM,23 and 19 and 21 and 25
same,"Fluorescence polarization, protein titration LC3A without tween",LC3A; Protein 5 µM,196 and 185 and 203 and 124
same,"Fluorescence polarization, protein titration LC3A with tween",LC3A; Protein 10 µM,18 and 19 and 20 and 25
same,"Fluorescence polarization, protein titration LC3A without tween",LC3A; Protein 10 µM,234 and 191 and 193 and 156
same,"Fluorescence polarization, protein titration LC3A with tween",LC3A; Protein 25 µM,18 and 17 and 26 and 19
same,"Fluorescence polarization, protein titration LC3A with tween",LC3A; Protein 50 µM,29 and 17 and 28 and 31
same,"Fluorescence polarization, protein titration LC3A without tween",LC3A; Protein 50 µM,218 and 219 and 177 and 165
same,"Fluorescence polarization, displacement experiment LC3A",LC3A; log Compound [M] -4.6031,87.7778 and 70
same,"Fluorescence polarization, displacement experiment LC3A",LC3A; log Compound [M] -5.05839,106.667 and 93.3333
same,"Fluorescence polarization, displacement experiment LC3A",LC3A; log Compound [M] -5.42608,111.111 and 106.667
same,"Fluorescence polarization, displacement experiment LC3A",LC3A; log Compound [M] -5.727,116.667 and 108.889
same,"Fluorescence polarization, displacement experiment LC3A",LC3A; log Compound [M] -6.20412,80 and 87.7778
same,"Fluorescence polarization, displacement experiment LC3A",LC3A; log Compound [M] -6.6031,94.4444 and 87.7778
same,"Fluorescence polarization, displacement experiment LC3A",LC3A; log Compound [M] -7.05839,96.6667 and 90
same,"Fluorescence polarization, displacement experiment LC3A",LC3A; log Compound [M] -7.42608,98.8889 and 88.8889
same,"Fluorescence polarization, displacement experiment LC3A",LC3A; log Compound [M] -7.727,95.5556 and 110
same,"Fluorescence polarization, displacement experiment LC3A",LC3A; log Compound [M] -8.20412,83.3333 and 101.111
same,"Fluorescence polarization, displacement experiment LC3A",LC3A; log Compound [M] -8.60189,82.2222 and 100
same,"Fluorescence polarization, protein titration LC3B with tween",LC3B; Protein 0.1 µM,14 and 24 and 21 and 25
same,"Fluorescence polarization, protein titration LC3B without tween",LC3B; Protein 0.1 µM,191 and 155 and 157 and 173
same,"Fluorescence polarization, protein titration LC3B with tween",LC3B; Protein 0.25 µM,30 and 20 (2×) and 28
same,"Fluorescence polarization, protein titration LC3B without tween",LC3B; Protein 0.25 µM,187 and 186 and 175 and 167
same,"Fluorescence polarization, protein titration LC3B with tween",LC3B; Protein 0.5 µM,23 and 18 and 30 and 16
same,"Fluorescence polarization, protein titration LC3B without tween",LC3B; Protein 0.5 µM,191 and 197 and 195 and 171
same,"Fluorescence polarization, protein titration LC3B with tween",LC3B; Protein 1 µM,18 and 20 and 17 and 25
same,"Fluorescence polarization, protein titration LC3B without tween",LC3B; Protein 1 µM,223 and 203 and 198 and 217
same,"Fluorescence polarization, protein titration LC3B with tween",LC3B; Protein 5 µM,24 (2×) and 19 and 17
same,"Fluorescence polarization, protein titration LC3B without tween",LC3B; Protein 5 µM,203 and 175 and 213 and 191
same,"Fluorescence polarization, protein titration LC3B with tween",LC3B; Protein 10 µM,26 and 22 and 24 and 28
same,"Fluorescence polarization, protein titration LC3B without tween",LC3B; Protein 10 µM,222 and 196 and 207 and 175
same,"Fluorescence polarization, protein titration LC3B with tween",LC3B; Protein 25 µM,25 and 29 and 18 and 31
same,"Fluorescence polarization, protein titration LC3B without tween",LC3B; Protein 25 µM,233 and 224 and 191 and 192
same,"Fluorescence polarization, protein titration LC3B with tween",LC3B; Protein 50 µM,16 and 30 and 20 and 21
same,"Fluorescence polarization, protein titration LC3B without tween",LC3B; Protein 50 µM,207 and 200 and 195 and 162
same,"Fluorescence polarization, displacement experiment LC3B",LC3B; log Compound [M] -4.6031,127.5 and 111.25
same,"Fluorescence polarization, displacement experiment LC3B",LC3B; log Compound [M] -5.05839,100 and 118.75
same,"Fluorescence polarization, displacement experiment LC3B",LC3B; log Compound [M] -5.42608,91.25 and 100.625
same,"Fluorescence polarization, displacement experiment LC3B",LC3B; log Compound [M] -5.727,105 and 99.375
same,"Fluorescence polarization, displacement experiment LC3B",LC3B; log Compound [M] -6.20412,76.875 and 78.125
same,"Fluorescence polarization, displacement experiment LC3B",LC3B; log Compound [M] -6.6031,97.5 and 96.25
same,"Fluorescence polarization, displacement experiment LC3B",LC3B; log Compound [M] -7.05839,95 and 98.75
same,"Fluorescence polarization, displacement experiment LC3B",LC3B; log Compound [M] -7.42608,104.375 and 100
same,"Fluorescence polarization, displacement experiment LC3B",LC3B; log Compound [M] -7.727,103.125 and 101.875
same,"Fluorescence polarization, displacement experiment LC3B",LC3B; log Compound [M] -8.20412,91.25 and 75.625
same,"Fluorescence polarization, displacement experiment LC3B",LC3B; log Compound [M] -8.60189,93.125 and 92.5
